{
  "source": "paper PMC11048566",
  "about": "“The Development of a Regulator of Human Serine Racemase for N-Methyl-D-aspartate Function” (Biomedicines, 2024)",
  "key": {"[1]": {"biological_target": "T1, human serine racemase (hSR) (Homo sapiens, UniProt Q9GZT4)", "T1 construct": "6xHis (C); made in house; host or cells: E. coli BL21 (pET42b-hSR)", "T1 sequence (Q9GZT4 1-340)": "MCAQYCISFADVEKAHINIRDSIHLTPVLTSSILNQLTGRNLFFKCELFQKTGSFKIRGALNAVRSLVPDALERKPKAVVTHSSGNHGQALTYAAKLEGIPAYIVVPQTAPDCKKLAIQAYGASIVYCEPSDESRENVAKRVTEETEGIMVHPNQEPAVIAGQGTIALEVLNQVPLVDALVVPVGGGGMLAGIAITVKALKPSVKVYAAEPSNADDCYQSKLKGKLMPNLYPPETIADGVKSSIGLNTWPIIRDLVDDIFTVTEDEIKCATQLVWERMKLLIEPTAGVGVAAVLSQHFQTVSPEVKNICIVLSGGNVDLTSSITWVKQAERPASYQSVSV", "test": "Two-step enzymatic assay of hSR racemization (hSR, then DAAO/HRP/Amplex Red)", "format": "biochemical", "conditions": "0.25 mM ATP", "experimental": "This assay was designed by the formation of D-serine by hSR and the oxidation of D-serine by D-amino acid oxidase (DAAO) and horseradish peroxidase (HRP) with the peroxidase substrate Amplex Red^TM (10-acetyl-3,7-dihydroxyphenoxazine) (Thermo Fisher Scientific, Lagoas Park, Porto Salvo, Portugal). The hSR activity assay reaction was carried out in 100 mM HEPES buffer, pH 8.0, containing 2.4 µg of hSR protein, 50 µM PLP, 1 mM MgCl2, 0.25 mM ATP, 400 mM L-serine, and 2 times serially diluted α12G (8 mM to 0.2 µM). Compound-free wells were used as blank controls in the assay. All reactions were performed in duplicates. The reaction mixtures were incubated at 37 °C for 4 h. The reaction was stopped by heating the reaction mixtures at 95 °C for 10 min and storage at 4 °C. A reaction mixture for the second-step enzymatic assay, DAAO assay, with a final volume of 100 µL was made with a 10 µL sample from hSR assay, 45 µM FAD, 10 units of HRP, 60 ng DAAO, 10 mM lead acetate, 10 mM Amplex Red^TM, and 100 mM Tris HCl (pH = 8.5). Lead acetate was used to conjugate α12G as the latter would inhibit the DAAO function in the fluorometric assay, leading to an […] of the effects of α12G on hSR. The fluorescence was detected by the TECAN Infinite 200 Microplate Reader (GMI, MN, USA). The racemization percentage was calculated as follows: racemization % = (Fsample, 20 min − Fsample, 0 min)/(Fblank, 20 min − Fblank, 0 min) × 100%. […] The two-step enzymatic assay described in Section 2.3 was designed by the formation of D-serine by hSR and the consequent oxidation of D-serine by DAAO. The inhibition of DAAO, which also degrades D-serine, by α12G will lead to overestimating the effects of racemization by hSR. […] Therefore, lead acetate was applied to conjugate α12G for the determination of racemization. […] On the contrary, when the concentration of α12G is higher than 2 mM, the racemization activity of hSR is inhibited."}, "[2]": {"tested_on": "MK-801-induced PPI deficit", "test": "Prepulse inhibition test in MK-801-treated mice", "format": "in vivo, C57BL/6J male mice", "conditions": "1 mg/kg oral, 0.3 mg/kg MK-801 IP; PPI 6 and PPI 10; p < 0.05, n = 14", "experimental": "(§1) For behavioral studies, α12G was dissolved in 35% PEG-400 and administrated by oral gavage 20 min prior to the MK-801 insult. MK-801 (Sigma-Aldrich, St. Louis, MO, USA) was administrated via intraperitoneal (IP) injection 20 min prior to the behavioral tests, with the dosage of 0.2 mg/kg for the open field test and novel object recognition test and 0.3 mg/kg for the prepulse inhibition test.\nC57BL/6J male mice were randomly assigned into five groups, 6–21 mice per group, (1) saline control, (2) MK-801, (3) 1 mg/kg α12G + MK-801, (4) 3.5 mg/kg α12G + MK-801, and (5) 10 mg/kg α12G + MK-801. Prepulse inhibition (PPI), a measurement of sensorimotor gating, served as a biomarker of schizophrenia. Using the SR-LAB startle apparatus (San Diego Instruments, San Diego, CA, USA), the PPI ratio with startle response was elicited by various acoustic stimuli. Each C57BL/6J male mouse was placed in an acrylic cylinder in a dark and sound-insulated chamber. With a constant 65 dB background noise, the session comprised a 5 min acclimation period followed by 4 blocks including a total of 64 trials. […] The ratio of PPI was calculated from the startle response by the following formula: PPI % = 100 × [(PA score) − (pp-P score)]/(PA score), while the PA score was averaged from PA values in the two middle blocks."}, "[3]": {"tested_on": "MK-801-induced memory impairment", "test": "Novel object recognition test in MK-801-treated mice", "format": "in vivo, C57BL/6J male mice", "conditions": "10 mg/kg oral, 0.2 mg/kg MK-801 IP; p < 0.01, n = 8", "experimental": "as §1\nC57BL/6J male mice were randomly assigned into five groups, 6–8 mice per group, (1) saline control, (2) MK-801, (3) 1 mg/kg α12G + MK-801, (4) 3 mg/kg α12G + MK-801, and (5) 10 mg/kg α12G + MK-801. A novel object recognition test (NOR) was conducted in a square chamber (40 × 40 × 40 cm) under 15–20 lux light intensity, and a digital camera was used to record the behaviors. The test consisted of two sessions. In session I, mice were allowed to explore the chamber with two identical objects (yellow square Lego bricks) for 5 min and were then moved to the home cage for 5 min. In session II, mice were allowed to explore the chamber with one object kept the same (familiar object) and the other replaced with a novel object (blue circular bottle cap) for 10 min. The interaction of mice with both the objects (familiar vs. novel) was recorded, and the discrimination index was calculated with the following formula:Discrimination index = Time (novel object) − Time (familiar object)/Total exploring time"}},
  "note": "Like-named read-outs stand apart in the source and are kept apart here.",
  "data": [
    {"smiles": "O=C(Oc1cc(C(=O)Oc2cc(C(=O)O[C@H]3OC[C@@H](OC(=O)c4cc(O)c(O)c(OC(=O)c5cc(O)c(O)c(OC(=O)c6cc(O)c(O)c(O)c6)c5)c4)[C@H](OC(=O)c4cc(O)c(O)c(OC(=O)c5cc(O)c(O)c(OC(=O)c6cc(O)c(O)c(O)c6)c5)c4)[C@H]3OC(=O)c3cc(O)c(O)c(OC(=O)c4cc(O)c(O)c(OC(=O)c5cc(O)c(O)c(O)c5)c4)c3)cc(O)c2O)cc(O)c1O)c1cc(O)c(O)c(O)c1", "note": "[α12G, (2R,3R,4S,5R)-tetrahydro-2H-pyran-2,3,4,5-tetrayl tetrakis(3-((3,4-dihydroxy-5-((3,4,5-trihydroxybenzoyl)oxy)benzoyl)ox)-4,5-dihydroxybenzoate)]", "values": [
      {"measurement": "Concentration above which hSR racemization activity is inhibited", "setting": "[1]", "result": "higher than 2 mM"},
      {"measurement": "EC100 (concentration of highest racemization activity)", "setting": "[1]; 400 mM L-serine, lead acetate in second step", "result": 31.25, "unit": "µM"},
      {"measurement": "Enhancement of hSR racemization", "setting": "[1]; maximum vs compound-free", "result": "about 8 fold"},
      {"measurement": "EC50", "setting": "[1]; falling limb of inverted U-shape curve, read-out: EC50 on hSR racemization (progressively inhibiting racemization)", "result": 221, "unit": "µM"},
      {"measurement": "EC50", "setting": "[1]; rising limb of inverted U-shape curve, read-out: EC50 on hSR racemization (favoring racemization)", "result": 8.82, "unit": "µM"},
      {"measurement": "Effect on PPI deficits", "setting": "[2]", "result": "significantly alleviate PPI deficits"},
      {"measurement": "Effect on MK-801-induced memory impairment (novel object recognition)", "setting": "[3]", "result": "attenuated this MK-801-induced memory impairment"}
    ]}
  ]
}
